Experimental findings from patent publication US20260355196A1, “INHIBITORS AND DEGRADERS OF PIP4K PROTEIN” (Larkspur Biosciences, Inc., priority 2023, published 2026) are described below.

The target in the assay is T1, PIP4K2C (Homo sapiens, UniProt Q8TBX8).
T1 sequence (Q8TBX8 1-421): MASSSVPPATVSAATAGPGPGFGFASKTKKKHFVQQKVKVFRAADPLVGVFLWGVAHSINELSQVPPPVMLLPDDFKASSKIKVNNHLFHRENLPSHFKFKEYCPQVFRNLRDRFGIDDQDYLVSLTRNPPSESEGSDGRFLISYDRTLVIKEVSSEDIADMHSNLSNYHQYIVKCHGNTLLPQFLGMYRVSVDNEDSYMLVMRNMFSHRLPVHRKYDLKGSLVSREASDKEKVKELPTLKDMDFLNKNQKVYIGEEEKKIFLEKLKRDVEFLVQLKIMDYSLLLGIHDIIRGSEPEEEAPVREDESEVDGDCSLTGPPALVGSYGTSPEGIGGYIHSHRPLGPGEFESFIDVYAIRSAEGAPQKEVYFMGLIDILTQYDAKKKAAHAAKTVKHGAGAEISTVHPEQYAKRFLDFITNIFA
Briefly: Enzyme Binding Assay (KINOMEscan): active site-directed competition binding to an immobilized ligand. Also on record: purchased Eurofins DiscoverX, San Diego, CA 87-0007-1094. The settings on record: 11-point dose response, duplicate, top concentration 5 micromolar; read-out: Pip4k2c Kd: IC50. In outline: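 IC50 values come from Hill-equation fits (Levenberg-Marquardt) to 11-point duplicate titrations starting at 5 micromolar. Read-out is competition of compound with an immobilized ligand for the kinase active site.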
Take `CNC(=O)[C@H]1CC[C@H](Nc2ncc(Cl)c(-c3cccc(-c4cccc(=O)[nH]4)c3)n2)CC1` [Compound 92, trans-(1r,4r)-4-((5-chloro-4-(3-(6-oxo-1,6-dihydropyridin-2-yl)phenyl)pyrimidin-2-yl)amino)-N-methylcyclohexane-1-carboxamide]: the IC50 (as a rule, the concentration needed to halve the response being measured) is less than 500 nM.
`CC(=O)N[C@H]1CC[C@@H](Nc2ncc(Cl)c(-c3cccc(-n4ccccc4=O)c3)n2)CC1` [Compound 93, cis-N-((1s,4s)-4-((5-chloro-4-(3-(2-oxopyridin-1 (2H)-yl)phenyl)pyrimidin-2-yl)amino)cyclohexyl)acetamide]: the IC50 is less than 500 nM.
`CNC(=O)[C@H]1C[C@@H](Nc2ncc(Cl)c(-c3cccc(-n4ccccc4=O)c3)n2)C1` [Compound 94, cis-3-((5-chloro-4-(3-(2-oxopyridin-1 (2H)-yl)phenyl)pyrimidin-2-yl)amino)-N-methylcyclobutane-1-carboxamide]: the IC50 is less than 500 nM.
Regarding `CNC(=O)[C@H]1CC[C@H](Nc2ncc(Cl)c(-c3ccc(=O)n(-c4ccc(F)cc4)c3)n2)CC1` [Compound 95, trans-(1r,4r)-4-((5-chloro-4-(1-(4-fluorophenyl)-6-oxo-1,6-dihydropyridin-3-yl)pyrimidin-2-yl)amino)-N-methylcyclohexane-1-carboxamide], the IC50 lay within 1000 to 5000 nM.
In the case of `CC(=O)N[C@H]1CC[C@H](Nc2ncc(Cl)c(-c3ccc(=O)n(C4CC4)c3)n2)CC1` [Compound 96, trans-N-((1r,4r)-4-((5-chloro-4-(1-cyclopropyl-6-oxo-1,6-dihydropyridin-3-yl)pyrimidin-2-yl)amino)cyclohexyl)acetamide] it was 500 to 1000 nM.
Next, `CNC(=O)[C@H]1C[C@@H](Nc2ncc(Cl)c(-c3cnn(C4CC4)c3)n2)C1` [Compound 97, cis-3-((5-chloro-4-(1-cyclopropyl-1H-pyrazol-4-yl)pyrimidin-2-yl)amino)-N-methylcyclobutane-1-carboxamide]: less than 500 nM; `CC(=O)N1CCC(Nc2ncc(Cl)c(-c3cnn(C4CC4)c3)n2)CC1` [Compound 98, 1-(4-((5-chloro-4-(1-cyclopropyl-1H-pyrazol-4-yl)pyrimidin-2-yl)amino)piperidin-1-yl)ethan-1-one]: less than 500 nM.
Next, `CC(=O)N[C@H]1CC[C@@H](Nc2ncc(Cl)c(-c3cnn(C4CC4)c3)n2)CC1` [Compound 99, cis-N-((1s,4s)-4-((5-chloro-4-(1-cyclopropyl-1H-pyrazol-4-yl)pyrimidin-2-yl)amino)cyclohexyl)acetamide]: 500 to 1000 nM.
As to `CC(=O)N[C@H]1CC[C@H](Nc2ncc(Cl)c(C3CCCN(C(=O)C4CC4)C3)n2)CC1` (stereo partly drawn) [Compound 100, trans-N-(4-((5-chloro-4-(1-(cyclopropanecarbonyl)piperidin-3-yl)pyrimidin-2-yl)amino)cyclohexyl)acetamide], the concentration for half-maximal inhibition (IC50) was less than 500 nM.
Next, `CNC(=O)[C@H]1CC[C@H](Nc2ncc(Cl)c(-c3cccc(-c4ccc(F)cc4)c3)n2)CC1` [Compound 101, trans-(1r,4r)-4-((5-chloro-4-(4′-fluoro-[1,1′-biphenyl]-3-yl)pyrimidin-2-yl)amino)-N-methylcyclohexane-1-carboxamide]: less than 500 nM; `CC(=O)N[C@H]1CC[C@H](Nc2ncc(Cl)c(-c3cccc(-n4ccccc4=O)c3)n2)CC1` [Compound 102, trans-N-((1r,4r)-4-((5-chloro-4-(3-(2-oxopyridin-1 (2H)-yl)phenyl)pyrimidin-2-yl)amino)cyclohexyl)acetamide]: less than 500 nM.
In the case of `CNC(=O)[C@H]1CC[C@H](Nc2ncc(Cl)c(-c3cccc(-n4ccccc4=O)c3)n2)CC1` [Compound 103, trans-(1r,4r)-4-((5-chloro-4-(3-(2-oxopyridin-1 (2H)-yl)phenyl)pyrimidin-2-yl)amino)-N-methylcyclohexane-1-carboxamide] it was less than 500 nM; in that of `CNC(=O)[C@H]1CC[C@@H](Nc2ncc(Cl)c(-c3cccc(-n4ccccc4=O)c3)n2)CC1` [Compound 104, cis-(1s,4s)-4-((5-chloro-4-(3-(2-oxopyridin-1 (2H)-yl)phenyl)pyrimidin-2-yl)amino)-N-methylcyclohexane-1-carboxamide], less than 500 nM; in that of `CC(=O)N1CCC(Nc2ncc(Cl)c(-c3ccnc(-c4ccc(F)cc4)c3)n2)CC1` [Compound 105, 1-(4-((5-chloro-4-(2-(4-fluorophenyl)pyridin-4-yl)pyrimidin-2-yl)amino)piperidin-1-yl)ethan-1-one], less than 500 nM.
Next, `CNC(=O)[C@H]1CC[C@H](Nc2ncc(Cl)c(-c3ccc(=O)n(C4CC4)c3)n2)CC1` [Compound 106, trans-(1r,4r)-4-((5-chloro-4-(1-cyclopropyl-6-oxo-1,6-dihydropyridin-3-yl)pyrimidin-2-yl)amino)-N-methylcyclohexane-1-carboxamide]: 500 to 1000 nM; `CNC(=O)[C@H]1CC[C@@H](Nc2ncc(Cl)c(-c3cnn(C4CC4)c3)n2)CC1` [Compound 107, cis-(1s,4s)-4-((5-chloro-4-(1-cyclopropyl-1H-pyrazol-4-yl)pyrimidin-2-yl)amino)-N-methylcyclohexane-1-carboxamide]: 500 to 1000 nM.
For `CNC(=O)[C@H]1CC[C@@H](Nc2ncc(Cl)c(-c3cnn(C4CCCCC4)c3)n2)CC1` [Compound 108, cis-(1s,4s)-4-((5-chloro-4-(1-cyclohexyl-1H-pyrazol-4-yl)pyrimidin-2-yl)amino)-N-methylcyclohexane-1-carboxamide], the IC50 was in the range of 1000 to 5000 nM.
In the case of `CC(=O)N1CCC(Nc2ncc(Cl)c(-c3ccn(C4CCCCC4)n3)n2)CC1` [Compound 109, 1-(4-((5-chloro-4-(1-cyclohexyl-1H-pyrazol-3-yl)pyrimidin-2-yl)amino)piperidin-1-yl)ethan-1-one] it was 1000 to 5000 nM; in that of `CC(=O)N1CCC(Nc2ncc(Cl)c(-c3cnn(-c4ccc(=O)[nH]c4)c3)n2)CC1` [Compound 110, 5-(4-(2-((1-acetylpiperidin-4-yl)amino)-5-chloropyrimidin-4-yl)-1H-pyrazol-1-yl)pyridin-2(1H)-one], less than 500 nM; in that of `CC(=O)N1CCC(Nc2ncc(Cl)c(-c3cnn(-c4ccc[nH]c4=O)c3)n2)CC1` [Compound 111, 3-(4-(2-((1-acetylpiperidin-4-yl)amino)-5-chloropyrimidin-4-yl)-1H-pyrazol-1-yl)pyridin-2(1H)-one], less than 500 nM.
In the case of `CC(=O)N1CCC(Nc2ncc(Cl)c(-c3cccc(-c4ccc(F)cc4)n3)n2)CC1` [Compound 114, 1-(4-((5-chloro-4-(6-(4-fluorophenyl)pyridin-2-yl)pyrimidin-2-yl)amino)piperidin-1-yl)ethan-1-one] it was less than 500 nM; in that of `CNC(=O)[C@H]1C[C@@H](Nc2ncc(Cl)c(-c3cccc(-c4ccc(F)cc4)n3)n2)C1` [Compound 115, cis-3-((5-chloro-4-(6-(4-fluorophenyl)pyridin-2-yl)pyrimidin-2-yl)amino)-N-methylcyclobutane-1-carboxamide], less than 500 nM.
As to `CC(=O)N[C@H]1CC[C@H](Nc2ncc(Cl)c(-c3cnn(C4CC4)c3)n2)CC1` [Compound 116, trans-N-((1r,4r)-4-((5-chloro-4-(1-cyclopropyl-1H-pyrazol-4-yl)pyrimidin-2-yl)amino)cyclohexyl)acetamide], the IC50 was less than 500 nM.
Next, `CNC(=O)[C@H]1CC[C@H](Nc2ncc(Cl)c(-c3cnn(C4CC4)c3)n2)CC1` [Compound 117, trans-(1r,4r)-4-((5-chloro-4-(1-cyclopropyl-1H-pyrazol-4-yl)pyrimidin-2-yl)amino)-N-methylcyclohexane-1-carboxamide]: less than 500 nM.
Next, `CNC(=O)[C@H]1CC[C@H](Nc2ncc(Cl)c(-c3cnn(C4CCCCC4)c3)n2)CC1` [Compound 118, trans-(1r,4r)-4-((5-chloro-4-(1-cyclohexyl-1H-pyrazol-4-yl)pyrimidin-2-yl)amino)-N-methylcyclohexane-1-carboxamide]: less than 500 nM; `CNC(=O)[C@H]1C[C@H](Nc2ncc(Cl)c(-c3cnn(-c4ccc(=O)[nH]c4)c3)n2)C1` [Compound 119, trans-(1r,3r)-3-((5-chloro-4-(1-(6-oxo-1,6-dihydropyridin-3-yl)-1H-pyrazol-4-yl)pyrimidin-2-yl)amino)-N-methylcyclobutane-1-carboxamide]: less than 500 nM; `CC(=O)N1CCC(Nc2ncc(Cl)c(-c3cnn(-c4cc[nH]c(=O)c4)c3)n2)CC1` [Compound 120, 4-(4-(2-((1-acetylpiperidin-4-yl)amino)-5-chloropyrimidin-4-yl)-1H-pyrazol-1-yl)pyridin-2(1H)-one]: less than 500 nM.
For the molecule `CC(=O)N[C@H]1CC[C@H](Nc2ncc(Cl)c(-c3cnn(-c4ccc(F)cc4)c3)n2)CC1` [Compound 121, trans-N-((1r,4r)-4-((5-chloro-4-(1-(4-fluorophenyl)-1H-pyrazol-4-yl)pyrimidin-2-yl)amino)cyclohexyl)acetamide], the IC50 was less than 500 nM.
Next, `CNC(=O)[C@H]1C[C@@H](Nc2ncc(Cl)c(-c3cnn(-c4ccc(F)cc4)c3)n2)C1` [Compound 122, cis-(1s,3s)-3-((5-chloro-4-(1-(4-fluorophenyl)-1H-pyrazol-4-yl)pyrimidin-2-yl)amino)-N-methylcyclobutane-1-carboxamide]: less than 500 nM.
